Non-standard residues stand in square brackets, D forms with d. Residues, ends and D or L forms follow the SMILES beside them. ξ: configuration not given here. Ala(1H-tetrazol-5-yl) = N[C@@H](Cc1nnn[nH]1)C(=O)O; ξAla(tetrazol-5-yl) = NC(Cc1nnn[nH]1)C(=O)O; Aib = CC(C)(N)C(=O)O
What was measured:
[1] = Stability test 1: survival rate of peptide in phosphate buffer (pH 7.0) after storage, HPLC; assay type: physicochemical; settings: 100 μM peptide, 0.1% phosphate buffer pH 7.0, head prints 80° C., 8 weeks (Table 4)
[2] = as above; assay type: physicochemical; settings: 100 μM peptide
Protocol: The 1.0 mM peptide solutions were then diluted with phosphate buffer to 100 μM. […] The prepared peptide solutions were incubated for one month or 2 months in a 40° C. thermostatic bath to obtain stored samples.
Using the total weight of the aqueous peptide solution and storage vessel as the specimen weight, measurements were recorded as the specimen weights before storage and the specimen weights after storage under different storage conditions. The empty weight of the storage vessel was also measured, and the moisture permeability was determined by the following formula.
After stirring the standard sample and the stored samples with a vortex mixer, each peptide solution was transferred to an HPLC vial (Deactivated Qsert vial by Waters Co.). Reverse-phase HPLC (HPLC system: Prominence by Shimadzu Corp.) was conducted under the conditions shown in Table 3 below for analysis of the peptide solutions, and chromatograms were obtained.
(§1) The peak area value for the peptide in the chromatogram was calculated, and the survival rate (survival rate before correction for water) was calculated using formula (2). The survival rate after correction for water was also calculated from the survival rate before correction for water using formula (3) to take into account the permeability of the container.
Peptide solutions prepared by the same method as [Measuring sample preparation 1] for the peptides synthesized in Example 2 (peptides 13 to 16) were incubated for 2 weeks and 8 weeks in a thermostatic bath at 40° C. to obtain stored samples.
Peptide solutions prepared by the same method as [Measuring sample preparation 1] for the peptides synthesized in Example 2 (peptides 17 to 21) were incubated for 4 weeks in a thermostatic bath at 40° C. to obtain stored samples.
A peptide solution prepared by the same method as [Measuring sample preparation 1] for peptide 22 synthesized in Example 2 was incubated for 1 week and 4 weeks in a thermostatic bath at 40° C. to obtain stored samples.

VPAC1 receptor = target: T1, VPAC1 receptor (Homo sapiens, UniProt P32241); assay: cAMP assay in CHO-K1 cells, VPAC1 receptor high-expressing cell line; assay type: cell-based; settings: 30 minutes incubation
T1 construct: host or cells: CHO-K1
T1 sequence (P32241 31-457): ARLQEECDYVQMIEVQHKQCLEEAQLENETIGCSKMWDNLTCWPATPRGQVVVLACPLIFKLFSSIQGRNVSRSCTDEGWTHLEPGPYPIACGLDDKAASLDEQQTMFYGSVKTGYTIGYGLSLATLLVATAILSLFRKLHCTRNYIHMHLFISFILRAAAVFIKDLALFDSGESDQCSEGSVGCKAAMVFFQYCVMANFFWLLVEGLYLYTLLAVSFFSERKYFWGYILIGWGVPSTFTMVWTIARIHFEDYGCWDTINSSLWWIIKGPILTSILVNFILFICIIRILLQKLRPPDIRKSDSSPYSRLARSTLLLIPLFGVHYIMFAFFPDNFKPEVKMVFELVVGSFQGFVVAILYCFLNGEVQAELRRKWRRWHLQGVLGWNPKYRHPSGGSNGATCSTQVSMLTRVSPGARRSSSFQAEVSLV
Protocol: The cells were cultured for 18 to 24 hours at 37° C. in a 5% CO2 incubator, adhering the cells to the plate. […] A 5-fold dilution series was then prepared with the same Cell assay buffer and used in an assay. The cAMP assay was carried out using a Hit Hunter cAMP Assay for Biologics kit (product of DiscoveRx, Cat. No. 90-0075LM25), according to the included kit instructions. […] Next, the culture medium was removed from the CHO-K1 cell culture plate, washing was performed with PBS, and the peptide-cAMP antibody liquid mixtures were added to the cells and incubated for 30 minutes under a 5% CO2 atmosphere at 37° C. A working detection solution was then added and the culture plate was shielded from light with aluminum foil and incubated at 25° C. for 1 hour. After incubation, Solution A was added and the culture plate was shielded from light with aluminum foil and then incubated at 25° C. for 3 hours. […] The obtained value for the Relative Luminescence Unit (RLU) was analyzed with GraphPad Prism Ver 6.05 (product of Graph Pad) and the EC50 value was calculated for each peptide.

[3] = Stability test 1, sample preparation 5: survival rate of peptide in Tris buffer (pH 7.0) after storage, HPLC; assay type: physicochemical; settings: 100 μM peptide; for survival rate after correction for water, 40° C. 4 week / survival rate after correction for water, 40° C. 8 week: Tris buffer pH 7.0, 40° C.; for survival rate after correction for water, 40° C. 4 week: 4 weeks (Table 13); for survival rate after correction for water, 40° C. 8 week: 8 weeks (Table 13); for survival rate after correction for water, 60° C. 1 week / survival rate after correction for water, 60° C. 2 week: Tris buffer pH 7.0, 60° C.; for survival rate after correction for water, 60° C. 1 week: 1 week (Table 13); for survival rate after correction for water, 60° C. 2 week: 2 weeks (Table 13)
Protocol: as §1
The prepared peptide solutions were incubated for 4 weeks or 8 weeks in a 40° C. thermostatic bath, and for one week or 2 weeks in a thermostatic bath at 60° C., to obtain stored samples.
The following gradient time was used only for peptide 30.

[4] = 100 μM peptide, Tris buffer pH 7.0, 60° C.
Protocol: The solution was filtered with a Chromatdisk (product of Merck Millipore, Millex-GV, 0.22 μm). The filtrate was diluted to 100 μM with Tris buffer (pH 7.0) and dispensed into a tube (Protein LoBind Tube by Eppendorf Co.). The prepared peptide solutions were incubated for 1 week or 2 weeks in a 60° C. thermostatic bath to obtain stored samples. A simultaneously prepared sample among the peptide solutions that was not stored was used as a standard sample (initial sample). The standard sample and the stored samples were stored at −30° C. until sample analysis.
• Column: XSelect CSH C18 by Waters Co., 5 μm, 4.6×250 mm • Guard column: XSelect CSH C18 by Waters Co., 5 μm, 4.6×20 mm Guard Cartridge • Detection wavelength: 220 nm • Mobile phase A: 0.1% formic acid aqueous solution • Mobile phase B: 0.1% acetonitrile formate solution • Measuring time: 20 minutes • Measuring sample injection rate: 50 μL • Flow rate: 1.0 mL/min • Column temperature: 40° C. • Sample cooler: 25° C. • Mobile phase delivery: The mixing ratio of mobile phase A and mobile phase B was varied as shown in Table 14 for linear concentration gradient control.

[5] = 0.1% phosphate buffer pH 7.0, 40° C., 4 weeks (Table 4)

For `CC[C@H](C)[C@H](NC(=O)CNC(=O)C(Cc1nnn[nH]1)NC(=O)[C@H](CO)NC(=O)[C@@H](N)Cc1c[nH]cn1)C(=O)N[C@@H](Cc1ccccc1)C(=O)N[C@H](C(=O)NC(Cc1nnn[nH]1)C(=O)NC(C)(C)C(=O)N[C@@H](Cc1ccc(O)cc1)C(=O)NC(C)(C)C(=O)N[C@@H](CCCNC(=N)N)C(=O)N[C@@H](Cc1ccc(O)cc1)C(=O)N[C@@H](CCCNC(=N)N)C(=O)N[C@@H](CCCCN)C(=O)N[C@@H](CCC(N)=O)C(=O)N[C@@H](CCSC)C(=O)N[C@@H](C)C(=O)N[C@H](C(=O)N[C@@H](CCCCN)C(=O)N[C@@H](CCCCN)C(=O)N[C@@H](Cc1ccc(O)cc1)C(=O)N[C@@H](CC(C)C)C(=O)N[C@@H](C)C(=O)N[C@@H](C)C(=O)N[C@H](C(=O)N[C@@H](CC(C)C)C(N)=O)C(C)C)C(C)C)[C@@H](C)O` (stereo partly drawn) [Peptide 7, HSTzGI FTTzAiY AiRYRK QMAVK KYLAA VL] (H-HS[ξAla(tetrazol-5-yl)]GIFT[ξAla(tetrazol-5-yl)][Aib]Y[Aib]RYRKQMAVKKYLAAVL-NH2), the “survival rate after correction for water, 80° C. 8 week” value (“survival rate … 80° C. 8 week” for short) [1] was 83.5% and the “survival rate after correction for water, 40° C. 4 week” value (shortened to “survival rate … 40° C. 4 week”) [2, 5] was 91.8%.
In the case of `CC[C@H](C)[C@H](NC(=O)CNC(=O)C(Cc1nnn[nH]1)NC(=O)[C@H](CO)NC(=O)[C@@H](N)Cc1c[nH]cn1)C(=O)N[C@@H](Cc1ccccc1)C(=O)N[C@H](C(=O)NC(Cc1nnn[nH]1)C(=O)N[C@@H](CO)C(=O)N[C@@H](Cc1ccc(O)cc1)C(=O)N[C@@H](CO)C(=O)N[C@@H](CCCNC(=N)N)C(=O)N[C@@H](Cc1ccc(O)cc1)C(=O)N[C@@H](CCCNC(=N)N)C(=O)N[C@@H](CCCCN)C(=O)N[C@@H](CCC(N)=O)C(=O)N[C@@H](CCSC)C(=O)N[C@@H](C)C(=O)N[C@H](C(=O)N[C@@H](CCCCN)C(=O)N[C@@H](CCCCN)C(=O)N[C@@H](Cc1ccc(O)cc1)C(=O)N[C@@H](CC(C)C)C(=O)N[C@@H](C)C(N)=O)C(C)C)[C@@H](C)O` (stereo partly drawn) [Peptide 8, HSTzGI FTTzSY SRYRK QMAVK KYLA] (H-HS[ξAla(tetrazol-5-yl)]GIFT[ξAla(tetrazol-5-yl)]SYSRYRKQMAVKKYLA-NH2), the “survival rate … 80° C. 8 week” value [1] is reported as 84.1% and the “survival rate … 40° C. 4 week” value [2, 5] is reported as 95.1%.
In the case of `CC[C@H](C)[C@H](NC(=O)CNC(=O)C(Cc1nnn[nH]1)NC(=O)[C@H](CO)NC(=O)[C@@H](N)Cc1c[nH]cn1)C(=O)N[C@@H](Cc1ccccc1)C(=O)N[C@H](C(=O)NC(Cc1nnn[nH]1)C(=O)N[C@@H](CO)C(=O)N[C@@H](Cc1ccc(O)cc1)C(=O)N[C@@H](CO)C(=O)N[C@@H](CCCNC(=N)N)C(=O)N[C@@H](Cc1ccc(O)cc1)C(=O)N[C@@H](CCCNC(=N)N)C(=O)N[C@@H](CCCCN)C(=O)N[C@@H](CCC(N)=O)C(=O)N[C@@H](CCSC)C(=O)N[C@@H](C)C(=O)N[C@H](C(=O)N[C@@H](CCCCN)C(=O)N[C@@H](CCCCN)C(=O)N[C@@H](Cc1ccc(O)cc1)C(=O)N[C@@H](CC(C)C)C(=O)N[C@@H](C)C(=O)N[C@@H](C)C(=O)N[C@H](C(N)=O)C(C)C)C(C)C)[C@@H](C)O` (stereo partly drawn) [Peptide 9, HSTzGI FTTzSY SRYRK QMAVK KYLAA V] (H-HS[ξAla(tetrazol-5-yl)]GIFT[ξAla(tetrazol-5-yl)]SYSRYRKQMAVKKYLAAV-NH2), the “survival rate … 80° C. 8 week” value [1] is reported as 83.3% and the “survival rate … 40° C. 4 week” value [2, 5] is reported as 92.4%.
With `CC[C@H](C)[C@H](NC(=O)CNC(=O)[C@H](Cc1nnn[nH]1)NC(=O)[C@H](CO)NC(=O)[C@H](Cc1c[nH]cn1)NC(C)=O)C(=O)N[C@@H](Cc1ccccc1)C(=O)N[C@@H](C)C(=O)N[C@@H](Cc1nnn[nH]1)C(=O)N[C@@H](C)C(=O)N[C@@H](Cc1ccc(O)cc1)C(=O)N[C@@H](CO)C(=O)N[C@@H](CCCNC(=N)N)C(=O)N[C@@H](Cc1ccc(O)cc1)C(=O)N[C@@H](CCCNC(=N)N)C(=O)N[C@@H](CCCCN)C(=O)N[C@@H](CCC(N)=O)C(=O)N[C@@H](CC(C)C)C(=O)N[C@@H](C)C(=O)N[C@H](C(=O)N[C@@H](CCCCN)C(=O)N[C@@H](CCCCN)C(=O)N[C@@H](Cc1ccc(O)cc1)C(=O)N[C@@H](CC(C)C)C(=O)N[C@@H](C)C(=O)N[C@@H](C)C(=O)N[C@H](C(=O)N[C@@H](CC(C)C)C(N)=O)C(C)C)C(C)C` [Peptide 27, HSTzGI FATzAY SRYRK QLAVK KYLAA VL] (Ac-HS[Ala(1H-tetrazol-5-yl)]GIFA[Ala(1H-tetrazol-5-yl)]AYSRYRKQLAVKKYLAAVL-NH2) the EC50 (VPAC1 receptor) was 0.111 nM, the “survival rate … 40° C. 4 week” value [3] was 90.9% and the “survival rate after correction for water, 40° C. 8 week” value (“survival rate … 40° C. 8 week” below) [3] was 84.3%. The “survival rate after correction for water, 60° C. 1 week” value [3] was 97.3% and the “survival rate after correction for water, 60° C. 2 week” value [3] was 95.5%.
In the case of `CC[C@H](C)[C@H](NC(=O)CNC(=O)[C@H](CC(=O)O)NC(=O)[C@H](CO)NC(=O)[C@@H](N)Cc1c[nH]cn1)C(=O)N[C@@H](Cc1ccccc1)C(=O)N[C@H](C(=O)N[C@@H](CC(=O)O)C(=O)N[C@@H](CO)C(=O)N[C@@H](Cc1ccc(O)cc1)C(=O)N[C@@H](CO)C(=O)N[C@@H](CCCNC(=N)N)C(=O)N[C@@H](Cc1ccc(O)cc1)C(=O)N[C@@H](CCCNC(=N)N)C(=O)N[C@@H](CCCCN)C(=O)N[C@@H](CCC(N)=O)C(=O)N[C@@H](CCSC)C(=O)N[C@@H](C)C(=O)N[C@H](C(=O)N[C@@H](CCCCN)C(=O)N[C@@H](CCCCN)C(=O)N[C@@H](Cc1ccc(O)cc1)C(=O)N[C@@H](CC(C)C)C(=O)N[C@@H](C)C(=O)N[C@@H](C)C(=O)N[C@H](C(=O)N[C@@H](CC(C)C)C(N)=O)C(C)C)C(C)C)[C@@H](C)O` [Reference Example 1, reference compound], the “survival rate … 80° C. 8 week” value [1] is reported as 21.3%, the “survival rate … 40° C. 4 week” value [3] is reported as 37.9% and the “survival rate … 40° C. 8 week” value [3] is reported as 15.6%. For the same compound, the “survival rate after correction for water, 60° C. 1 week” value [3] was 26.4%, the “survival rate after correction for water, 60° C. 2 week” value [3] was 14.6% and the “survival rate … 40° C. 4 week” value [2, 5] was 37.4%. The “survival rate after correction for water, 40° C. 1 week” value ([2]; phosphate buffer pH 7.0, 40° C., 1 week (Table 10)) was 74.9%, the “survival rate after correction for water, 40° C. 2 week” value ([2]; phosphate buffer pH 7.0, 40° C., 2 weeks (Table 6)) was 64.3% and the “survival rate … 40° C. 4 week” value ([2]; phosphate buffer pH 7.0, 40° C., 4 weeks (Table 8)) was 23.9%. For the same compound, the “survival rate … 40° C. 4 week” value ([2]; phosphate buffer pH 7.0, 40° C., 4 weeks (Table 10)) was 33.0%, the “survival rate … 40° C. 8 week” value ([2]; phosphate buffer pH 7.0, 40° C., 8 weeks (Table 6)) was 23.7% and the “survival rate after correction for water, 60° C. 1 week preservation” value ([4]; 1 week) was 26.6%. The “survival rate after correction for water, 60° C. 2 weeks preservation” value ([4]; 2 weeks) was 15.8%.
